Experimental data published in patent US11000033B2, “Ketone or oxime compound, and herbicide” (NISSAN CHEMICAL CORPORATION, priority 2014, dated 2021).

Assays:
Assay type in all cases: in vivo
Veronica persica = test: Test Example 4: herbicidal effect by soil treatment (symbol R); conditions: application herbicide amount 320 g/ha
In short: (§1)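 Seeds were sown in sterilized diluvial soil, covered with about 1.5 cm of soil, and the soil surface was sprayed with a water-diluted emulsion of the compound at a predetermined rate. Plants grew in a greenhouse at 25° C. to 30° C.; effects were scored visually 3 weeks after application.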

Lolium multiflorum Lam. = test: Test Example 4: herbicidal effect by soil treatment (symbol K); conditions: application herbicide amount 320 g/ha
In short: as §1

Leptochloa chinensis = test: Test Example 3: herbicidal effect by foliage application, Wagner pot (symbol D); conditions: application herbicide amount 320 g/ha
In short: (§2)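 The compound, formulated as an emulsion and diluted with water to a predetermined rate, is applied uniformly to leaves of two-week-old seedlings growing in submerged alluvial soil at 25–30 °C. Rice is included. Each plant is assessed 3 weeks later using defined criteria.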

beet = test: Test Example 5: effect on crop by foliage application, plastic box (symbol f); conditions: 320 g/ha, 3 weeks after application
In short: (§3)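 Plants were raised from seed in a greenhouse (25° C. to 30° C.) after sowing in a plastic box of sterilized diluvial soil.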

Apera spica-venti [1] = test: Test Example 4: herbicidal effect by soil treatment (symbol L); conditions: application herbicide amount 320 g/ha
In short: as §1

Abutilon theophrasti [2] = test: Test Example 4: herbicidal effect by soil treatment (symbol M); conditions: application herbicide amount 320 g/ha
In short: as §1

Avena fatua = test: Test Example 5: herbicidal effect by foliage application, plastic box (symbol I); conditions: 320 g/ha, 3 weeks after application
In short: (§4)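 Emulsion formulation, diluted with water to the intended rate, was applied uniformly to leaves by small sprayer. Recipients were 14-day greenhouse-grown seedlings (25° C. to 30° C.). Assessment followed at 3 weeks.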

transplanted rice plant = test: Test Example 1: effect on crop, application before weed generation in submerged conditions (symbol a); conditions: application herbicide amount 320 g/ha
In short: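 Rice at 2.5 leaf stage transplanted into submerged soil (4 cm depth) sown with three weed species; herbicide applied before weed emergence.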

Apera spica-venti [3] = test: Test Example 5: herbicidal effect by foliage application, plastic box (symbol L); conditions: 320 g/ha, 3 weeks after application
In short: as §4

Amaranthus retroflexus = test: Test Example 4: herbicidal effect by soil treatment (symbol N); conditions: application herbicide amount 320 g/ha
In short: as §1

Stellaria media [4] = test: Test Example 4: herbicidal effect by soil treatment (symbol P); conditions: application herbicide amount 320 g/ha
In short: as §1

Setaria viridis [5] = test: Test Example 5: herbicidal effect by foliage application, plastic box (symbol G); conditions: 320 g/ha, 3 weeks after application
In short: as §4

rapeseed = test: Test Example 5: effect on crop by foliage application, plastic box (symbol g); conditions: 320 g/ha, 3 weeks after application
In short: as §3

Digitaria ciliaris = test: Test Example 4: herbicidal effect by soil treatment (symbol F); conditions: application herbicide amount 320 g/ha
In short: as §1

Setaria viridis [6] = test: Test Example 4: herbicidal effect by soil treatment (symbol G); conditions: application herbicide amount 320 g/ha
In short: as §1

[7] = test system: Echinochloa crus-galli var. crus-galli; test: Test Example 5: herbicidal effect by foliage application, plastic box (symbol H); conditions: 320 g/ha, 3 weeks after application
In short: as §4

Galium spurium = test: Test Example 4: herbicidal effect by soil treatment (symbol Q); conditions: application herbicide amount 320 g/ha
In short: as §1

rice plant = test: Test Example 5: effect on crop by foliage application, plastic box (symbol b); conditions: 320 g/ha, 3 weeks after application
In short: as §3

Stellaria media [8] = test: Test Example 5: herbicidal effect by foliage application, plastic box (symbol P); conditions: 320 g/ha, 3 weeks after application
In short: as §4

Chenopodium album = test: Test Example 4: herbicidal effect by soil treatment (symbol O); conditions: application herbicide amount 320 g/ha
In short: as §1

[9] = test system: Echinochloa crus-galli var. crus-galli; test: Test Example 3: herbicidal effect by foliage application, Wagner pot (symbol H); conditions: application herbicide amount 320 g/ha
In short: as §2

Abutilon theophrasti [10] = test: Test Example 5: herbicidal effect by foliage application, plastic box (symbol M); conditions: 320 g/ha, 3 weeks after application
In short: as §4

[11] = test system: directly sowed rice plant; test: Test Example 3: effect on crop by foliage application, Wagner pot (symbol b); conditions: application herbicide amount 320 g/ha
In short: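 Steps: fill a 1/10000-are Wagner pot with alluvial soil; add water and mix to submerge at 0.1–0.5 cm depth; sow rice plus Echinochloa crus-galli var. crus-galli, Leptochloa chinensis and Cyperus difformis; grow in a 25–30 °C greenhouse.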

`CC(=O)CC1CC(O)=C(c2c(C)cc(-n3cccn3)cc2C)C1=O` (stereo not shown) [7-024] was tested, and the “Herbicidal effect grade, R: Veronica persica” value (Veronica persica) was 0 (Herbicidal ratio of 5% or lower (almost no effect)), the “Herbicidal effect grade, K: Lolium multiflorum Lam.” value (Lolium multiflorum Lam.) was 0 (Herbicidal ratio of 5% or lower (almost no effect)) and the “herbicidal effect on D (Leptochloa chinensis), grade 0-5” value (Leptochloa chinensis) was 5 (Herbicidal ratio of 90% or more (almost completely withered)). The “f: beet, effect on crop (criteria of Test Example 1)” value (beet) was 0 (Herbicidal ratio of 5% or lower (almost no effect)), the “Herbicidal effect grade, L: Apera spica-venti” value (Apera spica-venti [1]) was 0 (Herbicidal ratio of 5% or lower (almost no effect)) and the “Herbicidal effect grade, M: Abutilon theophrasti” value (Abutilon theophrasti [2]) was 0 (Herbicidal ratio of 5% or lower (almost no effect)). For the same compound, the “I: Avena fatua, herbicidal effect (criteria of Test Example 1)” value (Avena fatua) was 2 (Herbicidal ratio of 20% or higher and lower than 40%), the “Effect grade on crop, a: transplanted rice plant” value (transplanted rice plant) was 2 (Herbicidal ratio of 20% or higher and lower than 40%) and the “L: Apera spica-venti, herbicidal effect (criteria of Test Example 1)” value (Apera spica-venti [3]) was 1 (Herbicidal ratio of 5% or higher and lower than 20%). The “Herbicidal effect grade, N: Amaranthus retroflexus” value (Amaranthus retroflexus) was 0 (Herbicidal ratio of 5% or lower (almost no effect)), the “Herbicidal effect grade, P: Stellaria media” value (Stellaria media [4]) was 0 (Herbicidal ratio of 5% or lower (almost no effect)) and the “G: Setaria viridis, herbicidal effect (criteria of Test Example 1)” value (Setaria viridis [5]) was 0 (Herbicidal ratio of 5% or lower (almost no effect)). The “g: rapeseed, effect on crop (criteria of Test Example 1)” value (rapeseed) was 2 (Herbicidal ratio of 20% or higher and lower than 40%), the “Herbicidal effect grade, F: Digitaria ciliaris” value (Digitaria ciliaris) was 4 (Herbicidal ratio of 70% or higher and lower than 90%) and the “Herbicidal effect grade, G: Setaria viridis” value (Setaria viridis [6]) was 0 (Herbicidal ratio of 5% or lower (almost no effect)). The “H: Echinochloa crus-galli var. crus-galli, herbicidal effect (criteria of Test Example 1)” value [7] was 5 (Herbicidal ratio of 90% or more (almost completely withered)), the “Herbicidal effect grade, Q: Galium spurium” value (Galium spurium) was 0 (Herbicidal ratio of 5% or lower (almost no effect)) and the “b: directly sowed rice plant, effect on crop (criteria of Test Example 1)” value (rice plant) was 3 (Herbicidal ratio of 40% or higher and lower than 70%). The “P: Stellaria media, herbicidal effect (criteria of Test Example 1)” value (Stellaria media [8]) was 0 (Herbicidal ratio of 5% or lower (almost no effect)), the “Herbicidal effect grade, O: Chenopodium album” value (Chenopodium album) was 0 (Herbicidal ratio of 5% or lower (almost no effect)) and the “herbicidal effect on H (Echinochloa crus-galli var. crus-galli), grade 0-5” value [9] was 5 (Herbicidal ratio of 90% or more (almost completely withered)). For the same compound, the “M: Abutilon theophrasti, herbicidal effect (criteria of Test Example 1)” value (Abutilon theophrasti [10]) was 0 (Herbicidal ratio of 5% or lower (almost no effect)) and the “effect on crop b (directly sowed rice plant), grade 0-5” value [11] was 3 (Herbicidal ratio of 40% or higher and lower than 70%).
`COc1cc(Br)cc(C)c1C1=C(O)CC(CC(C)=O)C1=O` (stereo not shown) [7-027, 2-(4-bromo-2-methoxy-6-methylphenyl)-3-hydroxy-5-(2-oxopropyl)cyclopent-2-enone] was tested, and the “Herbicidal effect grade, R: Veronica persica” value (Veronica persica) was 0 (Herbicidal ratio of 5% or lower (almost no effect)), the “Herbicidal effect grade, K: Lolium multiflorum Lam.” value (Lolium multiflorum Lam.) was 5 (Herbicidal ratio of 90% or more (almost completely withered)) and the “D (Leptochloa chinensis) herbicidal effect grade” value (Leptochloa chinensis; Table 24) was 5 (Herbicidal ratio of 90% or more (almost completely withered)). For the same compound, the “f: beet, effect on crop (criteria of Test Example 1)” value (beet) was 0 (Herbicidal ratio of 5% or lower (almost no effect)), the “Herbicidal effect grade, L: Apera spica-venti” value (Apera spica-venti [1]) was 5 (Herbicidal ratio of 90% or more (almost completely withered)) and the “Herbicidal effect grade, M: Abutilon theophrasti” value (Abutilon theophrasti [2]) was 0 (Herbicidal ratio of 5% or lower (almost no effect)). The “I: Avena fatua, herbicidal effect (criteria of Test Example 1)” value (Avena fatua) was 5 (Herbicidal ratio of 90% or more (almost completely withered)), the “Effect grade on crop, a: transplanted rice plant” value (transplanted rice plant) was 3 (Herbicidal ratio of 40% or higher and lower than 70%) and the “L: Apera spica-venti, herbicidal effect (criteria of Test Example 1)” value (Apera spica-venti [3]) was 5 (Herbicidal ratio of 90% or more (almost completely withered)). For the same compound, the “Herbicidal effect grade, N: Amaranthus retroflexus” value (Amaranthus retroflexus) was 0 (Herbicidal ratio of 5% or lower (almost no effect)), the “Herbicidal effect grade, P: Stellaria media” value (Stellaria media [4]) was 0 (Herbicidal ratio of 5% or lower (almost no effect)) and the “G: Setaria viridis, herbicidal effect (criteria of Test Example 1)” value (Setaria viridis [5]) was 5 (Herbicidal ratio of 90% or more (almost completely withered)). The “g: rapeseed, effect on crop (criteria of Test Example 1)” value (rapeseed) was 2 (Herbicidal ratio of 20% or higher and lower than 40%), the “Herbicidal effect grade, F: Digitaria ciliaris” value (Digitaria ciliaris) was 5 (Herbicidal ratio of 90% or more (almost completely withered)) and the “Herbicidal effect grade, G: Setaria viridis” value (Setaria viridis [6]) was 5 (Herbicidal ratio of 90% or more (almost completely withered)). The “H: Echinochloa crus-galli var. crus-galli, herbicidal effect (criteria of Test Example 1)” value [7] was 5 (Herbicidal ratio of 90% or more (almost completely withered)), the “Herbicidal effect grade, Q: Galium spurium” value (Galium spurium) was 0 (Herbicidal ratio of 5% or lower (almost no effect)) and the “b: directly sowed rice plant, effect on crop (criteria of Test Example 1)” value (rice plant) was 3 (Herbicidal ratio of 40% or higher and lower than 70%). The “P: Stellaria media, herbicidal effect (criteria of Test Example 1)” value (Stellaria media [8]) was 0 (Herbicidal ratio of 5% or lower (almost no effect)), the “Herbicidal effect grade, O: Chenopodium album” value (Chenopodium album) was 0 (Herbicidal ratio of 5% or lower (almost no effect)) and the “H (Echinochloa crus-galli var. crus-galli) herbicidal effect grade” value ([9]; Table 24) was 5 (Herbicidal ratio of 90% or more (almost completely withered)). For the same compound, the “M: Abutilon theophrasti, herbicidal effect (criteria of Test Example 1)” value (Abutilon theophrasti [10]) was 0 (Herbicidal ratio of 5% or lower (almost no effect)) and the “b (directly sowed rice plant) effect on crop grade” value ([11]; Table 24) was 5 (Herbicidal ratio of 90% or more (almost completely withered)).
